What was measured:
[1] = tested on: HEK293G cells stably expressing SNAP-CXCR4; assay: Confocal microscopy of fluorescent ligand binding; assay type: cell-based, human; conditions: for localisation of fluorescence in cells: 30 min at 37 °C; for membrane fluorescence after pretreatment with IT1t or AMD3100: 10 μM IT1t or 10 μM AMD3100, 30 min pre-incubation; for binding after treatment with AMD3100: 10 μM AMD3100, 30 min pre-incubation
Experimental: HEK293G-SNAP-CXCR4 cells were seeded onto poly-D-lysine-coated (10 μg/mL) 8-well Nunc Lab-tek chambered coverglass (no. 1.0 borosilicate glass bottom) in DMEM supplemented with 10% FCS at a density of 30,000 cells per well. The following day, media were replaced with fresh media supplemented with 10% FCS containing 0.5 μM SNAP-Surface Alexa Fluor 488 (New England Biolabs, Hitchin UK) for 30 min at 37 °C. […]
Cells were imaged on a Zeiss LSM880 with a Zeiss Axio Observer Z1 stand (Carl Zeiss, Germany) using a 40× C-apochromat NA1.2 water immersion objective. Excitation was via a 488 nm argon (to image SNAP-Surface Alexa Fluor 488) and 633 nm helium-neon (to image fluorescent ligands) laser lines with a 488/561/633 multibeam splitter and emission collected using a 493–628 nm band pass or 638–737 nm band pass. The pinhole was set at 1 Airy unit for the longer wavelength and laser power and gain and offset settings kept constant within the experiment to allow comparison. Equatorial plane images were made and four images were captured per condition per experiment using ZEN 2012 software (Carl Zeiss, Germany). Imaging of each ligand was performed at least three times.

NLuc-CXCR4 = target: T1, NLuc-CXCR4 (Homo sapiens, UniProt P61073); assay type: binding
T1 construct: expressed in transfected cells; membranes prepared from them
T1 sequence (P61073 whole entry): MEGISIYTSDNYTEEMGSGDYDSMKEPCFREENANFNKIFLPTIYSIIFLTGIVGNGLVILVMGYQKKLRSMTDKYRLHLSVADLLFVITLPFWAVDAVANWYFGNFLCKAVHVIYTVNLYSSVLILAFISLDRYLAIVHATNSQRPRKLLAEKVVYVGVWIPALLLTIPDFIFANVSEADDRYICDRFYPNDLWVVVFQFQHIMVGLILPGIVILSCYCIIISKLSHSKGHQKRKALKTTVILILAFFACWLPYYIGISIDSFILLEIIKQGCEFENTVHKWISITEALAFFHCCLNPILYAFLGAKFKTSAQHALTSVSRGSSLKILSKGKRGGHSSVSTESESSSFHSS
Experimental: In white clear-bottom 96-well plates or white opaque bottom 96-well plates, membranes expressing NLuc-CXCR4 were diluted to 10 μg per well in 20 μL of HBSS containing 0.2% BSA. […] Plates were then incubated in the dark for 2 h at 37 °C in the absence of CO2. The NLuc substrate furimazine (Promega Corporation) was then added (5 μL per well, 10 μM final concentration) and the plates were read using the PHERAstar FS plate reader (BMG Labtech, UK) at room temperature. The filtered light from each well was simultaneously measured using a 460 nm (80 nm band-pass filter) for NLuc emission and >610 nm longpass filter for fluorescence emission of BODIPY 630/650-X coupled ligands. For BODIPY-FL-X coupled ligands, emissions were simultaneously measured at 475 nm (30 nm band-pass filter; NLuc emission) and 535 nm (30 nm bandpass filter; BODIPY FL-X emission). The resulting raw BRET ratio was calculated by dividing the >610 nm emission (for red ligands) or the 535 nm emission (for green ligands) by the emissions measured for NLuc. […]

Compound | localisation of fluorescence in cells ([1]; 100 nM ligand) | membrane fluorescence after pretreatment with IT1t or AMD3100 ([1]; 100 nM ligand) | localisation of fluorescence in cells ([1]; 50 nM ligand) | binding after treatment with AMD3100 ([1]; 50 nM ligand) | also measured
CC1(C)CN2C(CS/C(=N/[C@H]3CC[C@H](NC(=O)CCCCCNC(=O)COc4ccc(/C=C/C5=[N+]6C(=Cc7ccc(-c8cccs8)n7[B-]6(F)F)C=C5)cc4)CC3)NC3CCCCC3)=CSC2=N1 [Compound 10, (6,6-Dimethyl-5,6-dihydroimidazo[2,1-b]thiazol-3-yl)methyl (E)-N-Cyclohexyl-N′-((1R,4R)-4-(6-(2-(4-((E)-2-(5,5-difluoro-7-(thiophen-2-yl)-5H-4λ^4,5λ^4-dipyrrolo[1,2-c:2′,1′-f][1,3,2]diazaborinin-3-yl)vinyl)phenoxy)acetamido)hexanamido)cyclo-hexyl)carbamimidothioate] | localized membrane fluorescence and very little intracellular fluorescence | substantially reduced | – | – | –
CN1\C(=C/C=C/C=C/C2=[N+](CCCCCC(=O)N[C@H]3CC[C@H](/N=C(/NC4CCCCC4)SCC4=CSC5=NC(C)(C)CN45)CC3)c3ccc(S(=O)(=O)[O-])cc3C2(C)C)C(C)(C)c2cc(S(=O)(=O)O)ccc21 [Compound 11, 1-(6-(((1R,4R)-4-(((Z)-(Cyclohexylamino) (((6,6-dimethyl-5,6-dihydroimidazo[2,1-b]thiazol-3-yl)methyl)thio)methylene)amino)cyclohexyl)amino)-6-oxohexyl)-3,3-dimethyl-2-((1E,3E)-5-((Z)-1,3,3-trimethyl-5-sulfoindolin-2-ylidene)penta-1,3-dien-1-yl)-3H-indol-1-ium-5-sulfonate] | highly localized to the cell membrane | completely prevented | – | – | –
CN(Cc1ncc2ccccc2c1CCCNC(=O)CCCCCNC(=O)COc1ccc(/C=C/C2=[N+]3C(=Cc4ccc(-c5cccs5)n4[B-]3(F)F)C=C2)cc1)[C@H]1CCCc2cccnc21 [Compound 18a, (S,E)-6-(2-(4-(2-(5,5-Difluoro-7-(thiophen-2-yl)-5H-4λ^4,5λ^4-dipyrrolo[1,2-c:2′,1′-f][1,3,2]diazaborinin-3-yl)vinyl)phenoxy)acetamido)-N-(3-(3-((methyl(5,6,7,8-tetrahydroquinolin-8-yl)amino)methyl)isoquinolin-4-yl)propyl)hexanamide] | – | – | reasonable membrane fluorescence; however, intracellular fluorescence was also apparent | reduced binding to cell surface receptors | –
O=C(CCCCCNC(=O)COc1ccc(/C=C/C2=[N+]3C(=Cc4ccc(-c5cccs5)n4[B-]3(F)F)C=C2)cc1)NCCCCN(Cc1nc2ccccc2[nH]1)[C@H]1CCCc2cccnc21 [Compound 24, (S,E)-N-(4-(((1H-Benzo[d]imidazole-2-yl)methyl) (5,6,7,8-tetrahydroquinolin-8-yl)amino)butyl)-6-(2-(4-(2-(5,5-difluoro-7-(thiophen-2-yl)-5H-4λ4,5λ4-dipyrrolo [1,2-c:2′,1′-f][1,3,2]diazaborinin-3-yl)vinyl)phenoxy)acetamido)hexanamide] | – | – | reasonable membrane fluorescence; however, intracellular fluorescence was also apparent | reduced binding to cell surface receptors | –
CXCL12: chemokine, the only endogenous ligand of CXCR4, purchased from PeproTech | – | – | – | – | concentration-dependent decrease of the BRET signal (NLuc-CXCR4): not; displacement of fluorescently labeled CXCL12 (NLuc-CXCR4): fully displaced

Reference: article PMC10108349, “Small-Molecule Fluorescent Ligands for the CXCR4 Chemokine Receptor” (Journal of Medicinal Chemistry, 2023)
